Data as given in patent US20190142775A1, “TREATING ACTIVATED DERMAL CONDITIONS WITH AGENTS THAT TARGET ENERGY METABOLISM” (Sciaderm, Inc., priority 2016, published 2019).

Assays:
[1] = test system: psoriatic plaques; experiment: Open label case report: topical 3-BP formulation applied to psoriatic plaques of one subject; assay type: in vivo, human
Procedure: The present Example describes use of an exemplary topical formulation of 3-BP in the treatment of psoriasis. The goal of this study is to reduce the hyper-proliferation of skin cells and deactivate the inflammatory response associated with the condition. Therefore, treatment was planned in a sequential dose escalating fashion. Dose escalation is accomplished by a step wise increase in formulation strength and/or application volume and frequency. Daily or twice daily doses were administered, with an initial strength ranging from about 0.001% to about 0.05% and administered doses were increased incrementally to a final strength ranging from about 5% to about 25% of the total weight of the formulation. As a first objective, the maximum tolerated dose was established, which was indicated by the observation of local irritation in the area of application. In some cases, once local irritation was observed, dosing was then reduced by approximately factor of four and continued or readjusted as appropriate to assess efficacy.
An exemplary topical formulation of 3-BP was prepared as described below: […]
An exemplary 3-Bromo-Pyruvic Acid (“BPA”) formulation was compounded as a lotion of low viscosity, filled dropper bottles (e.g., a 3 mL dropper bottle).
Compounding: 3-Bromo-Pyruvic Acid, BPA, CAS#1113-59-3, was obtained from AK Scientific, Inc., Union City, Calif. and stored at frozen conditions. Given the known instability of BPA at higher pH (e.g., physiologic pH) the final formulation consisted of 75% acetic acid (5% w/w) and 25% compounding base with a pH of approximately 3.0. During formulation, all ingredients were chilled to +5° C., and kept on ice for the entire procedure.
Stock solution A was prepared by dissolving the appropriate amount of solid bromopyruvic acid, BPA, in 5% acetic acid at a concentration of 2% to 10% (w/w); depending on the desired final concentration, intermediate dilutions of for example 1:5, using 5% acetic acid, may have been prepared as well.
Stock solution B consisted of a commercially available compounding base, Vanicream™, NDC 45334-300-16, that was diluted 1:1 in 5% acetic acid. The final formulation was comprised of blending BPA solution (Stock A) with compounding base (Stock B) at a ratio of 1:1. The resulting formulation is of low viscosity and filled in 3 ml ophthalmic dropper bottles.
Final concentration of BPA was between 0.15 mM (0.0025% w/w) and 300 mM (5.0% w/w). To preserve stability of the active ingredient, the formulation was stored frozen at −18° C. until use. Once treatment application commenced, bottles were kept at refrigerated conditions (+5° C.) for up to 1 week and then replaced with freshly made product.
This research was conducted as an out-patient, open label, intra-individually controlled repeated measurement experiment involving up to 10 subjects. To minimize bias, subjects were treated at selected target plaques. Neighboring plaques serve as an intra-individual control.
An exemplary 3-BP formulation was self-administered as one or two drops per application, depending on size of the treatment area. Care was taken for drops to fall freely from the dropper tip to ensure a consistent dose volume of ≈25-50 μl/drop. Most treatment applications were done in the morning and photographs were taken mostly in the evening to allow possible moisturizing effects of the compounding base to wear off.
Within each treatment area, the severity is estimated by three clinical signs: erythema (redness), induration (thickness) and desquamation (scaling). Efficacy is assessed using the Investigators Global Assessment scale and the Psoriasis Area Severity Index (PASI), which are summarized in Tables 1 and 2 below. In addition, target lesions are photographed and adjudicated by a blinded independent investigator. These efficacy variables were assessed at every visit.
Safety is assessed by collection of research events and review of concomitant treatments. Clinical adverse event reporting is conducted at each visit. […]

[2] = at higher pH (e.g., physiologic pH); cited from earlier work
[3] = Plaque #3, right forearm, one drop per day, 1.75 mM, one week
[4] = Plaque #4, left forearm, 0.15 mM, QD, 2.5 weeks
[5] = Plaque #5, left elbow, 1 drop per day, 0.15 mM, 10 days

Question: With `O=C(O)C(=O)CBr` [3-BP, 3-bromopyruvate] as the compound, how does the “Adverse effects at a strength of 0.5 mM” value ([1]; 0.5 mM, summary of case report) read?
Answer: The value was “without any observable adverse effects”.

Question: What about the “Efficacy at a strength of 0.5 mM” value ([1]; 0.5 mM, summary of case report) of the same compound?
Answer: Its value is “highly effective”.

Question: What about the “Plaque status 20 weeks after last treatment application” value ([1]; Plaque 1, left forearm, 26 weeks after baseline (FIG. 1)) of the same compound?
Answer: Its value is “complete remission”.

Question: What about the Local adverse effects ([1]; Plaque 1, left forearm, BID, 0.1% to 5.0% (6-300 mM), after approximately one week of treatment) of the same compound?
Answer: Its Local adverse effects is “local irritation, oozing, and crusting”.

Question: What about the “Treatment effect on psoriatic plaque” value ([1]; Plaque 1, left forearm, one drop twice per day, strength escalated 0.1% to 5.0% (6-300 mM) in first week, later reduced to QD and 0.1%, stopped after 6 weeks) of the same compound?
Answer: Its value is “completely resolved”.

Question: And the “Plaque status 20 weeks after last treatment application” value ([1]; Plaque #2, right forearm)?
Answer: The value was “complete remission”.

Question: What about the “Duration of complete remission after last treatment application” value ([1]; Plaque #2, right forearm, as of the date of the last visit) of the same compound?
Answer: The value was “approximately 8 months”.

Question: And the “Tolerability / local adverse effects” value ([1]; Plaque #2, right forearm, once daily 0.1% (6 mM) one week, then 0.03% (1.75 mM) two weeks)?
Answer: The value was “well tolerated and only some mild local irritation”.

Question: And the “Treatment effect on psoriatic plaque” value ([1]; Plaque #2, right forearm, once daily 0.1% (6 mM) one week, then 0.03% (1.75 mM) two weeks, Day 21)?
Answer: Its value is “mostly resolved”.

Question: And the Tolerability ([1]; Plaque #3, right forearm, 0.5 mM, once per day)?
Answer: Its Tolerability is “well tolerated”.

Question: What about the “Treatment effect on severity of psoriasis plaques” value ([1]; Plaque #3, right forearm, 1 mM QD 10 days, then 0.5 mM once per day) of the same compound?
Answer: The value was “Significant improvement”.

Question: What about the Local adverse effects ([1]; Plaque #3, right forearm, 1 mM, QD, 10 days) of the same compound?
Answer: Its Local adverse effects is “minor local irritation”.

Question: What about the “Plaque status after treatment was stopped” value ([1]; Plaque #3, right forearm, after 1.75 mM QD and 6 mM every other day) of the same compound?
Answer: Its value is “psoriatic skin afflictions remained”.

Question: What about the Local adverse effects [1, 3] of the same compound?
Answer: The Local adverse effects was “itching and pin-head sized crusting”.

Question: And the “Treatment effect on psoriatic plaque” value [1, 3]?
Answer: Its value is “improved”.

Question: And the Local adverse effects ([1]; Plaque #3, right forearm, resumed at 6 mM every other day after one week pause)?
Answer: Its Local adverse effects is “local irritation became more pronounced”.

Question: And the Tolerability [1, 4]?
Answer: Its Tolerability is “well tolerated”.

Question: What about the “Treatment effect on psoriatic plaque” value [1, 4] of the same compound?
Answer: The value was “only marginal efficacy”.

Question: What about the “Time plaque remained resolved after the last application” value ([1]; Plaque #4, left forearm, 0.5 mM) of the same compound?
Answer: The value was “more than 6 weeks”.

Question: What about the Local adverse effects ([1]; Plaque #4, left forearm, 0.5 mM, Day 18 to 43) of the same compound?
Answer: The Local adverse effects was “did not induce any local irritancy or other unwanted effects”.

Question: And the “Treatment effect on psoriatic plaque” value ([1]; Plaque #4, left forearm, 0.5 mM, Day 18 to 43, continued treatment)?
Answer: The value was “completely resolved”.

Question: And the “Treatment effect on psoriatic plaque” value ([1]; Plaque #5, left elbow, 0.5 mM, 1 drop QD Days 10-19, 2 drops QD from Day 20, Day 47 (FIG. 4), versus untreated right elbow)?
Answer: The value was “completely clear of psoriasis”.

Question: And the Tolerability [1, 5]?
Answer: The Tolerability was “well tolerated”.

Question: And the “Treatment effect on psoriatic plaque” value [1, 5]?
Answer: The value was “only marginal improvement”.

Question: What about the “Response of all treated plaques” value ([1]; five different or recurring psoriasis plaques, over a period of three to six weeks) of the same compound?
Answer: The value was “responded favorably or completely resolved”.

Question: What about the “Concentration inducing local irritation / at which adverse events started to emerge” value ([1]; local irritation, including oozing and crusting, summary of case report) of the same compound?
Answer: Its value is ≥ 1000 µM.

Question: And the “Outcome of local adverse effects after cessation of treatment” value ([1]; within a few weeks after treatment was stopped)?
Answer: Its value is “resolved without sequelae”.

Question: What about the “Stability of BPA” value [2] of the same compound?
Answer: The value was “instability”.
